Experimental data from patent publication US12077503B2, “Substituted cyclic amides and their use as herbicides” (FMC CORPORATION, priority 2015, dated 2024).

Experiments:
Assay type in all cases: in vivo
[1] = tested on: pigweed (Amaranthus retroflexus); experiment: Test A preemergence; conditions: Amaranthus retroflexus, pre-emergence, 240 h, 0 to 100 scale (0 no effect, 100 complete control), read-out: Plant response rating, Pigweed
[2] = tested on: barnyardgrass (Echinochloa crus-galli); experiment: Test A preemergence; conditions: Echinochloa crus-galli, pre-emergence, 240 h, 0 to 100 scale (0 no effect, 100 complete control), read-out: Plant response rating, Barnyardgrass
Summary of the method: (§1)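 Compounds were formulated in a non-phytotoxic solvent mixture with surfactant and applied as a preemergence directed soil spray after seeding, or sprayed postemergence over plants 2 to 10 cm tall at the one- to two-leaf stage. Evaluation after about 10 d compared treated with untreated controls, using a scale from 0 (no effect) to 100 (complete control).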

Kochia (Kochia scoparia) [3] = experiment: Test A preemergence; conditions: Bassia scoparia, pre-emergence, 240 h, 0 to 100 scale (0 no effect, 100 complete control), read-out: Plant response rating, Kochia
Summary of the method: as §1

[4] = tested on: ragweed (common ragweed, Ambrosia elatior); experiment: Test A preemergence; conditions: Ambrosia artemisiifolia, pre-emergence, 240 h, 0 to 100 scale (0 no effect, 100 complete control), read-out: Plant response rating, Ragweed
Summary of the method: as §1

[5] = tested on: giant foxtail (Setaria faberii); experiment: Test A preemergence; conditions: Setaria faberi, pre-emergence, 240 h, 0 to 100 scale (0 no effect, 100 complete control), read-out: Plant response rating, Foxtail, Giant
Summary of the method: as §1

[6] = tested on: ryegrass, Italian (Italian ryegrass, Lolium multiflorum); experiment: Test A preemergence; conditions: Lolium multiflorum, pre-emergence, 240 h, 0 to 100 scale (0 no effect, 100 complete control), read-out: Plant response rating, Ryegrass, Italian
Summary of the method: as §1

[7] = tested on: pigweed (Amaranthus retroflexus); experiment: Test A postemergence; conditions: Amaranthus retroflexus, post-emergence, 240 h, Postemergence
Summary of the method: as §1

[8] = tested on: blackgrass (Alopecurus myosuroides); experiment: Test A postemergence; conditions: Alopecurus myosuroides, post-emergence, 240 h, Postemergence
Summary of the method: as §1

[9] = tested on: barnyardgrass (Echinochloa crus-galli); experiment: Test A postemergence; conditions: Echinochloa crus-galli, post-emergence, 240 h, Postemergence
Summary of the method: as §1

Kochia (Kochia scoparia) [10] = experiment: Test A postemergence; conditions: Bassia scoparia, post-emergence, 240 h, Postemergence
Summary of the method: as §1

[11] = tested on: ragweed (common ragweed, Ambrosia elatior); experiment: Test A postemergence; conditions: Ambrosia artemisiifolia, post-emergence, 240 h, Postemergence
Summary of the method: as §1

[12] = tested on: giant foxtail (Setaria faberii); experiment: Test A postemergence; conditions: Setaria faberi, post-emergence, 240 h, Postemergence
Summary of the method: as §1

corn (Zea mays) = experiment: Test A postemergence; conditions: Zea mays, post-emergence, 240 h, Postemergence
Summary of the method: as §1

[13] = tested on: Galium (catchweed bedstraw, Galium aparine); experiment: Test A postemergence; conditions: Galium, post-emergence, 240 h, Postemergence
Summary of the method: as §1

[14] = tested on: ryegrass, Italian (Italian ryegrass, Lolium multiflorum); experiment: Test A postemergence; conditions: Lolium multiflorum, post-emergence, 240 h, Postemergence
Summary of the method: as §1

[15] = tested on: wheat (Triticum aestivum); experiment: Test A postemergence; conditions: Triticum aestivum, post-emergence, 240 h, Postemergence
Summary of the method: as §1

N#Cc1cc([C@H]2CNC(=O)[C@]2(O)C(=O)Nc2cccc(F)c2F)ccc1F [Compound 1374]
pest or weed control at 500 g/ha ([1]; 500 g ai/ha, preemergence): 0%
pest or weed control at 125 g/ha ([1]; Preemergence, 125 g ai/ha): 0%
pest or weed control at 500 g/ha ([2]; 500 g ai/ha, preemergence): 0%
pest or weed control at 125 g/ha ([2]; Preemergence, 125 g ai/ha): 0%
pest or weed control at 500 g/ha (Kochia (Kochia scoparia) [3]; 500 g ai/ha, preemergence): 0%
pest or weed control at 125 g/ha (Kochia (Kochia scoparia) [3]; Preemergence, 125 g ai/ha): 0%
pest or weed control at 500 g/ha ([4]; 500 g ai/ha, preemergence): 0%
pest or weed control at 125 g/ha ([4]; Preemergence, 125 g ai/ha): 0%
pest or weed control at 500 g/ha ([5]; 500 g ai/ha, preemergence): 0%
pest or weed control at 125 g/ha ([5]; Preemergence, 125 g ai/ha): 0%
pest or weed control at 500 g/ha ([6]; 500 g ai/ha, preemergence): 0%
pest or weed control at 125 g/ha ([6]; Preemergence, 125 g ai/ha): 0%
pest or weed control at 125 g/ha ([7]; 125 g ai/ha, visual rating about 10 d after treatment, read-out: Pigweed plant response rating (0 to 100 scale)): 0%
pest or weed control at 500 g/ha ([7]; 500 g ai/ha, visual injury, 0 to 100 scale (0 no effect, 100 complete control), approx. 10 d, read-out: Plant response rating, Pigweed): 0%
pest or weed control at 125 g/ha ([8]; 125 g ai/ha, visual rating about 10 d after treatment, read-out: Blackgrass plant response rating (0 to 100 scale)): 0%
pest or weed control at 500 g/ha ([8]; 500 g ai/ha, visual injury, 0 to 100 scale (0 no effect, 100 complete control), approx. 10 d, read-out: Plant response rating, Blackgrass): 0%
pest or weed control at 125 g/ha ([9]; 125 g ai/ha, visual rating about 10 d after treatment, read-out: Barnyardgrass plant response rating (0 to 100 scale, 0 no effect, 100 complete control)): 0%
pest or weed control at 500 g/ha ([9]; 500 g ai/ha, visual injury, 0 to 100 scale (0 no effect, 100 complete control), approx. 10 d, read-out: Plant response rating, Barnyardgrass): 50%
pest or weed control at 125 g/ha (Kochia (Kochia scoparia) [10]; 125 g ai/ha, visual rating about 10 d after treatment, read-out: Kochia plant response rating (0 to 100 scale)): 0%
pest or weed control at 500 g/ha (Kochia (Kochia scoparia) [10]; 500 g ai/ha, visual injury, 0 to 100 scale (0 no effect, 100 complete control), approx. 10 d, read-out: Plant response rating, Kochia): 0%
pest or weed control at 125 g/ha ([11]; 125 g ai/ha, visual rating about 10 d after treatment, read-out: Ragweed plant response rating (0 to 100 scale)): 0%
pest or weed control at 500 g/ha ([11]; 500 g ai/ha, visual injury, 0 to 100 scale (0 no effect, 100 complete control), approx. 10 d, read-out: Plant response rating, Ragweed): 0%
pest or weed control at 125 g/ha ([12]; 125 g ai/ha, visual rating about 10 d after treatment, read-out: Foxtail, Giant plant response rating (0 to 100 scale)): 0%
pest or weed control at 500 g/ha ([12]; 500 g ai/ha, visual injury, 0 to 100 scale (0 no effect, 100 complete control), approx. 10 d, read-out: Plant response rating, Foxtail, Giant): 0%
plant injury at 125 g/ha (corn (Zea mays); 125 g ai/ha, visual rating about 10 d after treatment, read-out: Corn plant response rating (0 to 100 scale)): 0%
Corn plant response rating (crop injury, 0 = no effect, 100 = complete kill) at 500 g/ha (corn (Zea mays); 500 g ai/ha, visual injury, 0 to 100 scale (0 no effect, 100 complete control), approx. 10 d): 0%
pest or weed control at 125 g/ha ([13]; 125 g ai/ha, visual rating about 10 d after treatment, read-out: Galium plant response rating (0 to 100 scale)): 0%
pest or weed control at 500 g/ha ([13]; 500 g ai/ha, visual injury, 0 to 100 scale (0 no effect, 100 complete control), approx. 10 d, read-out: Plant response rating, Galium): 0%
pest or weed control at 125 g/ha ([14]; 125 g ai/ha, visual rating about 10 d after treatment, read-out: Ryegrass, Italian plant response rating (0 to 100 scale)): 0%
pest or weed control at 500 g/ha ([14]; 500 g ai/ha, visual injury, 0 to 100 scale (0 no effect, 100 complete control), approx. 10 d, read-out: Plant response rating, Ryegrass, Italian): 0%
plant injury at 125 g/ha ([15]; 125 g ai/ha, visual rating about 10 d after treatment, read-out: Wheat plant response rating (0 to 100 scale)): 0%
plant injury at 500 g/ha ([15]; 500 g ai/ha, visual injury, 0 to 100 scale (0 no effect, 100 complete control), approx. 10 d, read-out: Plant response rating, Wheat): 0%
